Source: the CATMoS acute toxicity set (Mansouri et al. 2021)
Where a SMILES comes first, the peptide text is derived from it. [ ]: non-standard residue; d: D form. The star is where a group is joined. Sta = CC(C)C[C@H](N)[C@@H](O)CC(=O)O; Isovaleryl = CC(C)CC(=O)*

Test: GHS categories as the set defines them, by LD50: 1 up to 5, 2 up to 50, 3 up to 300, 4 up to 2000, 5 above 2000 mg/kg
Settings: rat; in vivo; po

| SMILES | GHS category |
| --- | --- |
| OC[C@H]1NC[C@H](O)[C@@H](O)[C@@H]1O | 5 |
| CS/C(C)=N/O | 4 |
| CN(C)CCCOc1nn(-c2cccc(C(F)(F)F)c2)c2ncccc12 | 4 |
| CC(C)(CO)c1cc(Cl)nnc1Cl | 4 |
| C=C(C=CCC(O)C(O)C(O)CC=CC=CC(O)CC1OC(CC(O)C(O)CC2OC(C(O)C(O)CCC(O)C=CC(C)C(O)CC3(O)OC(CC(O)CCCCCCCC45CC(C)CC(C)(O4)C(CC(C)CCCCCC(O)C(O)C(O)C(O)C(O)C4OC(CC(O)C(O)C(C)=CC(O)CC(C)C(O)C(=O)NC=CC(=O)NCCCO)C(O)C(O)C4O)O5)C(O)C(O)C3O)CC(O)C2O)C(O)C(O)C1O)CCC(O)C(O)C(O)C(C)CC1OC(C=CC(O)C(O)CC2CC3CC(O2)C(CCC2OC(CN)CC2O)O3)C(O)C(O)C1O (stereo not drawn) | 1 |
| C=CC(=O)OCCOCC(CC)(COCCOC(=O)C=C)COCCOC(=O)C=C | 5 |
| CNC(=O)C(C#N)=c1[nH]c(=C2C(=O)NC(=O)NC2=O)c2ccccc12 | 5 |
| N[C@H](C(=O)O)c1ccc(O)cc1 | 5 |
| Cc1ccc(OP(=O)(Oc2ccc(C)cc2C)Oc2ccc(C)cc2C)c(C)c1 | 5 |
| CC1CC(OC(=O)C(C)(C)Oc2ccc(Cl)cc2)CC(C)(C)C1 (stereo not drawn) | 5 |
| O=C(NC(=O)C(Cl)(Cl)Cl)NS(=O)(=O)c1ccccc1 | 5 |
| CCCCCCC(O)CO (stereo not drawn) | 5 |
| CC(C)OC(=O)Nc1nc(N2CC=CCC2)cc2nc(=O)on12 | 5 |
| CCCCCCCC(=O)OCCC(C)O (stereo not drawn) | 2 |
| CNC(=O)C(=NNc1ccc(Cl)cc1)C(C)=O | 5 |
| CCc1cccc(OP(=O)(Oc2cccc(CC)c2)Oc2cccc(CC)c2)c1 | 5 |
| CC(=O)OCC1=CC[C@@]23C[C@@H]1C(C)(C)[C@@H]2CC[C@H]3C | 5 |
| CCOC(=O)C1(C)OC(=O)N(c2cc(Cl)cc(Cl)c2)C1=O (stereo not drawn) | 5 |
| CC=CC(=O)OCCCCCC | 5 |
| CCCCCCCC(=O)OOC(C)(C)C | 5 |
| CCc1ccc(-n2nnnc2CSCCC(=O)N(CC)CC)cc1 | 4 |
| CC(C)CC(=O)N[C@H](C(=O)N[C@H](C(=O)N[C@@H](CC(C)C)[C@@H](O)CC(=O)N[C@@H](C)C(=O)N[C@@H](CC(C)C)[C@@H](O)CC(=O)O)C(C)C)C(C)C (Isovaleryl-VV[Sta]A[Sta]-OH) | 5 |
| CN1COCN=C1N[N+](=O)[O-] | 4 |
| Clc1ccccc1-c1nc(-c2ccncc2)no1 | 5 |

| SMILES | GHS category |
| --- | --- |
| COc1ccc2[nH]cc(CCNC(C)=O)c2c1 | 5 |
| CC(=C(CCS(C)=O)SSC(CCS(C)=O)=C(C)N(C=O)Cc1cnc(C)nc1N)N(C=O)Cc1cnc(C)nc1N (stereo not drawn) | 4 |
| CCCCCCCCOC(=O)c1ccc(C(=O)OCCCCCCCC)cc1 | 5 |
| CNC(=O)C(=NNc1ccccc1)C(C)=O | 5 |
| Cc1cc(=O)nc(C(C)(C)O)[nH]1 | 5 |
| CN1C(=O)CCc2ccc(OCCCN3CCC(Cc4ccccc4)CC3)cc21 | 4 |
| CC1OC(Cn2cncn2)(c2cc3cc(Cl)cc(Cl)c3o2)OC1C (stereo not drawn) | 4 |
| O=c1n(CCO)c(=O)n(CCO)c(=O)n1CCO | 5 |
| O=C(O)c1ccc(C(=O)O)o1 | 5 |
| CC1(C)COC(Cn2cncn2)(c2cc3ccccc3o2)OC1 | 4 |
| O=c1c2n[nH]nc2nc2sc(CCC3CCCCC3)nn12 | 5 |
| NS(=O)(=O)c1cc2c(cc1Cl)NC(Cc1ccccc1)NS2(=O)=O (stereo not drawn) | 5 |
| CC1CCC2(OC1)OC1CC3C4CC=C5CC(O)CCC5(C)C4CCC3(C)C1C2C (stereo not drawn) | 5 |
| CCCc1nc2c(C)cc(-c3nc4ccccc4n3C)cc2n1Cc1ccc(-c2ccccc2C#N)cc1 | 5 |
| C#CCN1C(=O)COc2cc(F)c(N3C(=O)C4=C(CCCC4)C3=O)cc21 | 5 |
| CCCCCCCCCCCCCCCCCC(=O)OCCOC(=O)CCCCCCCCCCCCCCCCC | 5 |
| CS(=O)(=O)c1ccc(O)c(Cl)c1 | 4 |
| CC(=O)Nc1ccc(OC(=O)c2cccs2)cc1 | 5 |
| N#CCN(CC#N)CC#N | 3 |
| CC(C)COC(=O)OCN1C(=O)CN(CCN2CC(=O)N(COC(=O)OCC(C)C)C(=O)C2)CC1=O | 5 |
| CC(C)N1C2CCC1CC(OC(=O)C(CO)c1ccccc1)C2 (stereo not drawn) | 4 |
| Cc1cc(O)c2c(O)c(-c3ccc4cc(C)cc(O)c4c3O)ccc2c1 | 5 |
| Cc1ccc(C(C)C)c(OC(=O)c2ccccc2Nc2cccc(C)c2C)c1 | 5 |
| CCCCCCCCCCCCCCCC(=O)OC[C@@H](O)[C@H]1OC[C@H](O)[C@H]1O | 5 |
